Assay results: ChEMBL document CHEMBL5365420, “Kinetics, Thermodynamics, and Structural Effects of Quinoline-2-Carboxylates, Zinc-Binding Inhibitors of New Delhi Metallo-β-lactamase-1 Re-sensitizing Multidrug-Resistant Bacteria for Carbapenems” (J Med Chem, 2023)
Values after ≈ are worked out from the molar mass of the structure shown.

Key:
Format in all cases: functional
[1] = tested on: Escherichia coli; experiment: Antibacterial activity against clinical isolate Escherichia coli K12 J53-ST10 684/18 expressing bla-NDM-1 co-expressing bla-CMY-2 and bla-OXA-10 assessed as inhibition of bacterial growth measured after 20 hrs by broth microdilution assay
[2] = tested on: Escherichia coli; experiment: Antibacterial activity against clinical isolate Escherichia coli K12 J53-ST10 618/15 expressing blaNDM-1 assessed as inhibition of bacterial growth measured after 20 hrs by broth microdilution assay
[3] = tested on: Klebsiella pneumoniae; experiment: Antibacterial activity against clinical isolate Klebsiella pneumoniae ST1493/10 expressing blaNDM-1 co-expressing blaCMY-2like/blaTEM-1/blaCTX-M-15/blaSHV-28/blaOXA-1 and blaOXA-9 assessed as inhibition of bacterial growth measured after 20 hrs by broth microdilution assay
[4] = tested on: Acinetobacter baumannii; experiment: Antibacterial activity against clinical isolate Acinetobacter baumannii IC 19/09 expressing blaNDM-1 co-expressing blaOXA-64 assessed as inhibition of bacterial growth measured after 20 hrs by broth microdilution assay
[5] = tested on: Escherichia coli; experiment: Antibacterial activity against clinical isolate Escherichia coli K12 J53-ST10 696/17 expressing blaNDM-1 co-expressing blaCMY-4 assessed as inhibition of bacterial growth measured after 20 hrs by broth microdilution assay
[6] = tested on: Klebsiella pneumoniae; experiment: Antibacterial activity against clinical isolate Klebsiella pneumoniae 50/20 expressing blaNDM-5 co-expressing blaTEM-1 and blaSHV-1 assessed as inhibition of bacterial growth measured after 20 hrs by broth microdilution assay
[7] = tested on: Klebsiella pneumoniae; experiment: Antibacterial activity against clinical isolate Klebsiella pneumoniae ST23213/19 expressing blaNDM-1 co-expressing blaOXA-48/blaSHV-11/blaCTX-M-15 and blaOXA-1 assessed as inhibition of bacterial growth measured after 20 hrs by broth microdilution assay
[8] = tested on: Escherichia coli; experiment: Antibacterial activity against clinical isolate Escherichia coli K12 J53-ST10 699/15 expressing blaNDM-1 assessed as inhibition of bacterial growth measured after 20 hrs by broth microdilution assay
[9] = tested on: Klebsiella pneumoniae; experiment: Antibacterial activity against clinical isolate Klebsiella pneumoniae 50/11 expressing blaNDM-1 co-expressing blaTEM-1/blaSHV-28/blaTEM-1/blaCTX-M-15 and blaOXA-1 assessed as inhibition of bacterial growth measured after 20 hrs by broth microdilution assay
[10] = tested on: Escherichia coli; experiment: Antibacterial activity against clinical isolate Escherichia coli 371/12 expressing blaNDM-7 co-expressing blaCTX-M-15 and blaOXA-1 assessed as inhibition of bacterial growth measured after 20 hrs by broth microdilution assay
[11] = tested on: Escherichia coli; experiment: Antibacterial activity against clinical isolate Escherichia coli ST1012/10 expressing blaNDM-1 co-expressing blaTEM-1/blaCTX-M-15/blaOXA-1 and blaOXA-2 assessed as inhibition of bacterial growth measured after 20 hrs by broth microdilution assay
[12] = tested on: Klebsiella pneumoniae; experiment: Antibacterial activity against clinical isolate Klebsiella pneumoniae 62/07 expressing blaVIM-19 co-expressing blaSHV-1/blaCTX-M-14 and blaCMY-4 assessed as inhibition of bacterial growth measured after 20 hrs by broth microdilution assay

In the case of `C[C@@H](O)[C@H]1C(=O)N2C(C(=O)O)=C(S[C@@H]3CN[C@H](C(=O)N(C)C)C3)[C@H](C)[C@H]12` [MEROPENEM], the MIC [1] is reported as 64 µg/mL (≈ 167 µM), the MIC [2] is reported as 32 µg/mL (≈ 83.4 µM) and the MIC [3] is reported as 128 µg/mL (≈ 334 µM). The MIC [4] was over 128 µg/mL, the MIC [5] was 16 µg/mL (≈ 41.7 µM) and the MIC [6] was 64 µg/mL (≈ 167 µM). It also gave an MIC [7] of over 128 µg/mL, an MIC [8] of 32 µg/mL (≈ 83.4 µM) and an MIC [9] of 64 µg/mL (≈ 167 µM). It also gave an MIC [10] of 64 µg/mL (≈ 167 µM), an MIC [11] of 128 µg/mL (≈ 334 µM) and an MIC [12] of 128 µg/mL (≈ 334 µM).
